Some test systems named below: U-251; DMS-114; HOP-62; SK-MEL-28; OVCAR-8; UACC-62; HOP-92; LOX IMVI; HCT-15; OVCAR-5; OVCAR-3; OVCAR-4; NCI-H226; Malme-3M; SNB-75; SK-MEL-5; HCC 2998; RPMI-8226; BT-549; PC-3.
Holding throughout (test): NCI tumour cell line growth inhibition, 48 h

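Protocol summary: plate cells (96-well), add compound at 5 concentrations, incubate 48 h, interpolate endpoints linearly. The concentration for 50% growth inhibition is given as GI50.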 The source made the active and inactive calls. Cut-off read from the data, not from the text of the source: active = GI50 up to about 1.1 µM and inactive = higher. A value given as a limit tells only on which side of the number the result lay.

`COc1ccc(OC)c(/C=N/N=C(\N)NO)c1`: the GI50 in the test with U-251 is 34.4 µM (inactive); in the test on DMS-114 it was 14.9 µM (inactive); in the test with HOP-62, 29.6 µM (inactive); in the test with SK-MEL-28 it was 75.7 µM (inactive); with OVCAR-8, 27.7 µM (inactive); in the test on UACC-62, 4.61 µM (inactive). For the same compound, the GI50 in the test with HOP-92 was 23.3 µM (inactive); in the test on LOX IMVI, 2.84 µM (inactive); with HCT-15, 5.98 µM; in the test on OVCAR-5, 27.4 µM (inactive); in the test on OVCAR-3, 23.8 µM (inactive); in the test on OVCAR-4, 7.28 µM (inactive). Further, the GI50 in the test with NCI-H226 is 16.6 µM (inactive); with Malme-3M, 36.8 µM (inactive); in the test on SNB-75, 72.4 µM (inactive).

Regarding `CC(C)(C)c1ccc(OCCOCCOc2ccc(C(C)(C)C)cc2S(=O)(=O)Nc2ccc([N+](=O)[O-])cc2)c(S(=O)(=O)Nc2ccc([N+](=O)[O-])cc2)c1`, the GI50 is 7.28 µM (inactive) in the test with U-251; 9.42 µM (inactive) in the test on DMS-114; 81.7 µM (inactive) with HOP-62; 15.5 µM (inactive) in the test with SK-MEL-28; 9.95 µM (inactive) in the test on OVCAR-8; 6.21 µM (inactive) with UACC-62. The GI50 in the test with HOP-92 was 4.07 µM (inactive); with SK-MEL-5, 6.17 µM (inactive); in the test with LOX IMVI, 23.4 µM (inactive); in the test with HCT-15 it was 7.69 µM; in the test on OVCAR-5, > 100 µM (inactive); in the test with OVCAR-3 it was 7.43 µM (inactive). The GI50 in the test with HCC 2998 was 8.73 µM (inactive); with OVCAR-4, 33.7 µM (inactive); with NCI-H226, 47.8 µM (inactive); in the test with Malme-3M it was 83.9 µM (inactive); in the test on SNB-75 it was 56.6 µM (inactive).

For `COc1ccccc1/C=C(\NC(=O)c1ccccc1)c1nc2ccccc2[nH]1`, the GI50 was 47.2 µM (inactive) in the test on U-251; 29.4 µM (inactive) in the test on DMS-114; 36.9 µM (inactive) in the test on SK-MEL-28; 38 µM (inactive) in the test on OVCAR-8; 45 µM (inactive) in the test with UACC-62; 28.9 µM (inactive) with HOP-92. For the same compound, the GI50 in the test with SK-MEL-5 was 23.3 µM (inactive); in the test on LOX IMVI it was 52.4 µM (inactive); in the test with HCT-15, above 100 µM; in the test on OVCAR-5, > 100 µM (inactive); in the test with RPMI-8226, 17.6 µM (inactive); in the test on OVCAR-3, 44.5 µM (inactive). Also, the GI50 was 35 µM (inactive) in the test with OVCAR-4, 95.7 µM (inactive) in the test with Malme-3M and 31.5 µM (inactive) with SNB-75.

With `CC(Oc1ccc(OCC2CCCCC2)cc1)C(=O)O` (stereo not given), the GI50 in the test on U-251, in the test with DMS-114, in the test with SK-MEL-28, in the test on OVCAR-8, with UACC-62 and with SK-MEL-5 was > 100 µM (inactive) in each case. The GI50 is > 100 µM (inactive) with LOX IMVI; above 100 µM in the test on HCT-15; > 100 µM (inactive) in the test with OVCAR-3; > 100 µM (inactive) in the test with OVCAR-4; > 100 µM (inactive) with NCI-H226; > 100 µM (inactive) in the test on Malme-3M. Also, in the test on SNB-75, the GI50 is > 100 µM (inactive).

With `Cc1cc(C)nc(NS(=O)(=O)c2ccc(Nc3c4ccccc4nc4c(C(=O)Nc5ccc(S(N)(=O)=O)cc5)cccc34)cc2)n1`, the GI50 in the test on U-251 was 58.3 µM (inactive); with DMS-114, > 100 µM (inactive); in the test on HOP-62, > 100 µM (inactive); in the test with SK-MEL-28 it was 83.9 µM (inactive); in the test with OVCAR-8, > 100 µM (inactive); in the test on UACC-62, 66.1 µM (inactive). Also, the GI50 with HOP-92 was 30.9 µM (inactive); with SK-MEL-5, > 100 µM (inactive); with LOX IMVI, 75.9 µM (inactive); in the test with HCT-15, 47.1 µM; in the test with OVCAR-5, > 100 µM (inactive); in the test with RPMI-8226 it was > 100 µM (inactive). In addition, the GI50 in the test on OVCAR-3 was 66.5 µM (inactive); in the test on OVCAR-4, 85.5 µM (inactive); in the test on Malme-3M, > 100 µM (inactive); with SNB-75, 25.8 µM (inactive).

For the compound `CC(=O)OC1CCC2C(=CCC3C2(C)C(=O)CC2(C)C(C4(C)OC(C(C)C)=CC4=O)C(O)CC32C)C1(C)C` (stereo not given), the GI50 in the test on U-251 was 39.4 µM (inactive); with DMS-114, 25.8 µM (inactive); in the test with HOP-62, > 100 µM (inactive); with OVCAR-8 it was 43.7 µM (inactive); in the test with UACC-62, 19.1 µM (inactive); with HOP-92 it was 41.3 µM (inactive). The GI50 with SK-MEL-5 was 23.5 µM (inactive); in the test with HCT-15, 30.2 µM; in the test on OVCAR-5, > 100 µM (inactive); with RPMI-8226, 22 µM (inactive); in the test with OVCAR-3, > 10 µM (inactive); in the test with NCI-H226, 75 µM (inactive). In addition, the GI50 in the test with Malme-3M was 21.5 µM (inactive); in the test on SNB-75, 28.4 µM (inactive).

Take `O=C(Nc1ccccc1[N+](=O)[O-])C(=O)C(C(=O)c1ccccc1-c1ccccc1)C1OC(=O)c2ccccc21` (stereo not given): the GI50 with U-251 was 11.6 µM (inactive); with DMS-114, 13.6 µM (inactive); in the test with HOP-62, 17.5 µM (inactive); in the test on SK-MEL-28 it was 18.2 µM (inactive); with OVCAR-8 it was 14.8 µM (inactive); in the test on UACC-62, 16 µM (inactive). Also, the GI50 in the test on SK-MEL-5 was 18 µM (inactive); in the test with LOX IMVI, 16.3 µM (inactive); in the test on HCT-15, 15.9 µM; in the test on OVCAR-5 it was 20.3 µM (inactive); with RPMI-8226, 18.5 µM (inactive); in the test with OVCAR-3, 14 µM (inactive). Also, the GI50 in the test with HCC 2998 is 14.8 µM (inactive); in the test with OVCAR-4 it was 24.1 µM (inactive); with NCI-H226 it was 6.1 µM (inactive); in the test on Malme-3M, 13 µM (inactive); in the test with SNB-75, 16.9 µM (inactive).

On to `COc1cc(/C=C/c2ccncc2)cc(OC)c1OC`, for which the GI50 in the test with U-251 was > 100 µM (inactive); in the test with DMS-114, > 100 µM (inactive); with HOP-62, 53.6 µM (inactive); in the test with SK-MEL-28 it was > 100 µM (inactive); in the test on OVCAR-8, > 100 µM (inactive); in the test on UACC-62, 67.1 µM (inactive). In addition, the GI50 was 29.9 µM (inactive) in the test with HOP-92; 63.2 µM (inactive) with SK-MEL-5; 72.4 µM (inactive) in the test on LOX IMVI; 49.4 µM in the test on HCT-15; 38.8 µM (inactive) in the test with OVCAR-5; 52.4 µM (inactive) with RPMI-8226. Besides, the GI50 was 94.2 µM (inactive) in the test with OVCAR-3; 76.9 µM (inactive) with OVCAR-4; > 100 µM (inactive) in the test on NCI-H226; > 100 µM (inactive) with Malme-3M; 39.2 µM (inactive) in the test with SNB-75.

Turning to `CCOC(=O)NC/C=C/CO`, the GI50 in the test with U-251, in the test with DMS-114, with HOP-62, in the test with SK-MEL-28, in the test on OVCAR-8 and with UACC-62 was > 100 µM (inactive) throughout. Besides, the GI50 in the test on SK-MEL-5 was > 100 µM (inactive); in the test with HCT-15, above 100 µM; with RPMI-8226, > 100 µM (inactive); with HCC 2998, > 100 µM (inactive); in the test with OVCAR-4 it was > 100 µM (inactive); with NCI-H226, > 100 µM (inactive). Also, the GI50 with Malme-3M and with SNB-75 was > 100 µM (inactive) each time.

In the case of `Cc1ccc(-n2cc(/C(N)=N/O)c3ccccc3c2=O)cc1`, the GI50 with U-251, with DMS-114, with HOP-62, in the test with SK-MEL-28, with OVCAR-8 and in the test on UACC-62 was > 100 µM (inactive) each time. Besides, the GI50 in the test on SK-MEL-5 is > 100 µM (inactive); in the test with LOX IMVI, > 100 µM (inactive); in the test with HCT-15, above 100 µM; in the test on RPMI-8226, > 100 µM (inactive); in the test on OVCAR-3 it was > 100 µM (inactive); in the test on HCC 2998, > 100 µM (inactive). For the same compound, the GI50 in the test with NCI-H226 and in the test with Malme-3M was > 100 µM (inactive) in each case.

Regarding `CN(C)CCCN1c2ccc3ccccc3c2Sc2cccc(Cl)c21`, the GI50 with U-251 is 2.18 µM (inactive); with BT-549, 15.1 µM (inactive); in the test on HOP-62, 2.85 µM (inactive); with SK-MEL-28, 2.18 µM (inactive); in the test with OVCAR-8, 4.33 µM (inactive); with UACC-62, 2 µM (inactive). For the same compound, the GI50 in the test with HOP-92 is 1.51 µM (inactive); with SK-MEL-5, 3.83 µM (inactive); with LOX IMVI, 1.97 µM (inactive); with HCT-15, 4.33 µM; in the test with OVCAR-5, 5.13 µM (inactive); in the test with RPMI-8226, 1.78 µM (inactive). Also, the GI50 in the test with OVCAR-3 was 2.89 µM (inactive); in the test on HCC 2998 it was 1.61 µM (inactive); with OVCAR-4 it was 4.4 µM (inactive); in the test on NCI-H226, 7.11 µM (inactive); in the test with PC-3 it was 3.01 µM (inactive); in the test on Malme-3M it was 5.13 µM (inactive). Also, the GI50 in the test with SNB-75 is 3.6 µM (inactive).

On to `CCN(CC)CCSc1nc2c(c(=N)n1-c1ccccc1)c(=S)n(-c1ccccc1)c(=S)n2-c1ccccc1`, for which the GI50 was 2.37 µM (inactive) with U-251; 2.23 µM (inactive) in the test with BT-549; 2.85 µM (inactive) in the test on HOP-62; 3.62 µM (inactive) in the test with SK-MEL-28; 1.71 µM (inactive) in the test on OVCAR-8; 1.71 µM (inactive) in the test with UACC-62. In addition, the GI50 is 1.41 µM (inactive) in the test with HOP-92; 3.24 µM (inactive) with SK-MEL-5; 1.46 µM (inactive) with LOX IMVI; 1.77 µM with HCT-15; 14.9 µM (inactive) with OVCAR-5; 0.275 µM (active) in the test with RPMI-8226. The GI50 in the test with OVCAR-3 is 1.64 µM (inactive); in the test with HCC 2998 it was 1.58 µM (inactive); in the test with OVCAR-4, 3.47 µM (inactive); in the test with NCI-H226, 25.7 µM (inactive); with PC-3, 1.8 µM (inactive); in the test on Malme-3M, 1.55 µM (inactive). Moreover, in the test on SNB-75, the GI50 was 2.19 µM (inactive).

The record behind these values is ChEMBL document CHEMBL1201862, “PubChem BioAssay data set” (2004).
